# Data published in the supplement of paper PMC10307832.
# Compound: CN1CCN(CC1)C2=CC(=C(C=C2)NC3=NC=C4C(=N3)N(C5=CC=CC=C5C(=O)N4C)C)OC [XMD8-85] + CC(=O)Nc1cccc(-n2c(=O)n(C3CC3)c(=O)c3c(Nc4ccc(I)cc4F)n(C)c(=O)c(C)c32)c1 [Trametinib] (partner 0.02 µM)
# Test: relative viability (nuclei count vs DMSO), 5 days (fraction); higher = more cells survive
# Conditions: first compound 0.08 µM
# Method in brief: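 Relative viability is defined as nuclei in treated wells over nuclei in vehicle wells. Duplicate plates were run and medians reported. Lung cancer cell lines in 1536-well plates were dosed by pin tool one day after seeding, with one drug or with a fixed anchor-drug dose plus five library-drug doses (not always all listed) in √10 steps, and nuclei were counted after 5 days.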
row,Cell Line,relative viability
1,201T,0.718
2,A-427,0.755
3,BEN,0.866
4,CAL-12T,0.32
5,COR-L23,0.488
6,COR-L 105,0.432
7,ChaGo-K-1,0.926
8,EKVX,0.56
9,EMC-BAC-2,0.901
10,EPLC-272H,0.276
11,H3255,0.576
12,HARA,0.9
13,HCC-15,0.396
14,HCC-44,1.11
15,HCC-78,1.14
16,HCC-366,0.33

row,Cell Line,relative viability
1,HCC-827,0.55
2,HOP-62,0.368
3,LC-2-ad,0.93
4,LCLC-97TM1,0.178
5,LCLC-103H,0.728
6,LK-2,0.858
7,NCI-H358,0.111
8,NCI-H522,0.821
9,NCI-H1395,0.832
10,NCI-H1648,0.493
11,NCI-H1944,0.388
12,NCI-H2170,0.848
13,NCI-H2228,0.354
14,NCI-H2342,0.747
15,SK-MES-1,0.57
16,SW 900,0.813

# Same assay, conditions: first compound 0.253 µM
row,Cell Line,relative viability
1,201T,0.746
2,A-427,0.731
3,BEN,1
4,CAL-12T,0.404
5,COR-L23,0.548
6,COR-L 105,0.465
7,ChaGo-K-1,0.908
8,EKVX,0.327
9,EMC-BAC-2,0.879
10,EPLC-272H,0.271
11,H3255,0.593
12,HARA,0.78
13,HCC-15,0.315
14,HCC-44,1.12
15,HCC-78,1.02
16,HCC-366,0.35
17,HCC-827,0.461

row,Cell Line,relative viability
1,HOP-62,0.378
2,LC-2-ad,0.914
3,LCLC-97TM1,0.174
4,LCLC-103H,0.637
5,LK-2,0.611
6,NCI-H358,0.139
7,NCI-H522,0.653
8,NCI-H1395,1.08
9,NCI-H1648,0.416
10,NCI-H1793,0.483
11,NCI-H1944,0.453
12,NCI-H2170,0.845
13,NCI-H2228,0.57
14,NCI-H2342,0.807
15,SK-MES-1,0.616
16,SW 900,0.746

# Same assay, conditions: first compound 0.8 µM
row,Cell Line,relative viability
1,201T,0.738
2,A-427,0.697
3,BEN,0.983
4,COR-L23,0.651
5,COR-L 105,0.433
6,ChaGo-K-1,0.944
7,EKVX,0.437
8,EMC-BAC-2,0.895
9,EPLC-272H,0.272
10,H3255,0.465
11,HARA,0.578
12,HCC-15,0.408
13,HCC-44,1.12
14,HCC-78,0.735
15,HCC-366,0.467
16,HCC-827,0.528

row,Cell Line,relative viability
1,HOP-62,0.34
2,LC-2-ad,0.955
3,LCLC-97TM1,0.218
4,LCLC-103H,0.683
5,LK-2,0.538
6,NCI-H358,0.128
7,NCI-H522,0.739
8,NCI-H1395,0.995
9,NCI-H1648,0.397
10,NCI-H1793,0.37
11,NCI-H1944,0.462
12,NCI-H2170,1.03
13,NCI-H2228,0.379
14,NCI-H2342,0.859
15,SK-MES-1,0.49
16,SW 900,0.935

# Same assay, conditions: first compound 2.53 µM
row,Cell Line,relative viability
1,201T,0.681
2,A-427,0.714
3,BEN,0.829
4,CAL-12T,0.302
5,COR-L23,0.548
6,COR-L 105,0.506
7,ChaGo-K-1,0.962
8,EKVX,0.47
9,EMC-BAC-2,0.828
10,EPLC-272H,0.313
11,H3255,0.554
12,HARA,0.21
13,HCC-15,0.408
14,HCC-44,1.04
15,HCC-78,0.536
16,HCC-366,0.324

row,Cell Line,relative viability
1,HCC-827,0.512
2,HOP-62,0.339
3,LC-2-ad,0.997
4,LCLC-97TM1,0.153
5,LCLC-103H,0.676
6,LK-2,0.448
7,NCI-H358,0.11
8,NCI-H522,0.698
9,NCI-H1395,1.04
10,NCI-H1648,0.337
11,NCI-H1793,0.481
12,NCI-H1944,0.462
13,NCI-H2170,1
14,NCI-H2228,0.387
15,NCI-H2342,0.922
16,SK-MES-1,0.428

# Same assay, conditions: first compound 8 µM
row,Cell Line,relative viability
1,201T,0.617
2,A-427,0.631
3,BEN,0.681
4,CAL-12T,0.379
5,COR-L23,0.333
6,COR-L 105,0.437
7,ChaGo-K-1,0.668
8,EKVX,0.374
9,EMC-BAC-2,0.67
10,EPLC-272H,0.251
11,H3255,0.373
12,HARA,0.33
13,HCC-15,0.287
14,HCC-44,1.01
15,HCC-78,0.402
16,HCC-366,0.307
17,HCC-827,0.496
18,HOP-62,0.129
19,LC-2-ad,0.458
20,LCLC-97TM1,0.116
21,LCLC-103H,0.522
22,LK-2,0.312
23,NCI-H358,0.132
24,NCI-H522,0.537
25,NCI-H1395,0.829
26,NCI-H1648,0.354
27,NCI-H1793,0.442
28,NCI-H1944,0.369
